Earlier results on one molecule are cited in US20240374519A1, “COMPOSITIONS FOR SUPPLEMENTING PRODUCTS WITH THERAPEUTIC AGENTS AND METHODS OF USE THEREOF” (DISRUPTION LABS, INC., priority 2021, published 2024).

The structures appear in SMILES notation.

With `C=C(C)[C@@H]1CCC(C)=C[C@H]1c1c(O)cc(CCCCC)cc1O` [Cannabidiol], the log partition coefficient (log P) – broadly, the decadic logarithm of the partition coefficient of the neutral form, usually between octanol and water – is recorded as above 5.
